Converted amounts (≈) assume the structure as drawn. “Also recorded” adds a separate entry of the source. Where two headings read alike, the source gives them in different places.

Broadly, the MIC is the smallest concentration in the dilution series that meets the test's criterion for growth inhibition.

A short description of data set [1]: Single dose PK (IV and PO). The data set is classed as in vivo. The following applies: mice, 10 mg/kg IV or IP, within 6 h, serum; 10 mg/kg.
Another data set deals with S. aureus. As to the kind of experiment: MIC (Table 2B). The data set is classed as cell-based. The note with it: Staphylococcus aureus, strain not given.
The subject of another data set is N. gonorrhoeae. The data set can be described thus: MIC (Table 2B). It counts as cell-based. The note with it: Neisseria gonorrhoeae, read-out: N. gonorrhoeae MIC.
In another data set the test system is 36 mammalian receptors. It counts as binding. The following applies: 10 μM; every receptor of the panel.

For the compound `O=C(Nc1nnc(-c2ccc(F)cc2)o1)c1ccc(Cl)cc1` [KKL-35], the “detectable material after dosing (preliminary PK)” value in data set [1] is on record as “no detectable material; also recorded: undetectable”.

Consider `Cc1ccc(C(=O)Nc2nnc(-c3ccc(N4CCC4)cc3)o2)cc1C` [3999A], for which the MIC worked out at 0.68 µg/mL (≈ 1.95 µM) against S. aureus and 0.087 µg/mL (≈ 0.25 µM) in the data set with N. gonorrhoeae (Table 2B, strain not given).

Turning to `Cc1ccccc1Oc1ccc(C(=O)Nc2nnc(-c3ccc(F)cc3)o2)cc1` [compound 4307], the minimum inhibitory concentration (MIC) against S. aureus was found to be 0.61 µg/mL (≈ 1.57 µM); with N. gonorrhoeae (Table 2B, strain not given), 0.09 µg/mL (≈ 0.231 µM).

Turning to `Nc1ccc(C(=O)Nc2nnc(-c3ccc(F)cc3)o2)cc1` [compound 5804], the MIC with N. gonorrhoeae came to 18.8 µg/mL (≈ 63 µM).

For the compound `COc1ccc(Oc2ccc(C(=O)Nc3nnc(-c4ccc(F)cc4)o3)cc2)cc1` [compound 4310], the MIC in the data set with S. aureus amounted to 0.631 µg/mL (≈ 1.56 µM); with N. gonorrhoeae (Table 2B, strain not given), 0.05 µg/mL (≈ 0.123 µM).

On to `O=C(Nc1nnc(C2COc3ccccc3O2)o1)c1ccc(Oc2ccccc2)nc1` (stereo not shown) [compound 4770], for which the MIC was 7.36 µg/mL (≈ 17.7 µM) in the data set on S. aureus and 3.33 µg/mL (≈ 8 µM) in the data set with N. gonorrhoeae (Table 2B, strain not given).

Turning to `CCC(c1ccccc1)c1nnc(NC(=O)c2ccc(Oc3ccccc3)nc2)o1` (stereo not shown) [compound 4804], the MIC with N. gonorrhoeae (Table 2B, strain not given) is 0.63 µg/mL (≈ 1.57 µM).

On to `Cc1cncc(Oc2ccc(C(=O)Nc3nnc(C4CC5CCC4C5)o3)cc2)n1` (stereo not shown) [compound 6282], for which the MIC in the data set on S. aureus is 6.9 µg/mL (≈ 17.6 µM); in the data set on N. gonorrhoeae (Table 2B, strain not given) it was 1.37 µg/mL (≈ 3.5 µM).

On to `Cc1cccc(-c2nnc(NC(=O)c3ccc(Oc4ccccc4)nc3)o2)c1` [compound 4499], for which the minimal inhibitory concentration (MIC) with S. aureus is 0.92 µg/mL (≈ 2.47 µM); with N. gonorrhoeae (Table 2B, strain not given) it was 0.18 µg/mL (≈ 0.483 µM).

With `COc1c(F)cccc1-c1nnc(NC(=O)c2ccc(Oc3cncc(C)n3)cc2)o1` [compound 6983], the MIC was determined as 21.1 µg/mL (≈ 50.1 µM) against S. aureus and 9.7 µg/mL (≈ 23 µM) in the data set with N. gonorrhoeae (Table 2B, strain not given).

Turning to `O=C(Nc1nnc(-c2ccc(F)cc2)o1)c1ccc2c(c1)ncn2-c1ccccc1` [compound 4311], the minimal inhibitory concentration (MIC) in the data set on N. gonorrhoeae (Table 2B, strain not given) was found to be 2.49 µg/mL (≈ 6.23 µM).

As to `O=C(Nc1nnc(C2CC3CCC2C3)o1)c1ccc(Oc2ccccc2)nc1` (stereo not shown) [compound 5246], the MIC turned out to be 4.71 µg/mL (≈ 12.5 µM) in the data set with S. aureus and 0.16 µg/mL (≈ 0.425 µM) with N. gonorrhoeae (Table 2B, strain not given).

In the case of `O=C(Nc1nnc(-c2cccc(F)c2O)o1)c1ccc(Oc2cccc(O)c2)cc1` [compound 6976], the MIC against S. aureus is 2.5 µg/mL (≈ 6.14 µM); in the data set on N. gonorrhoeae (Table 2B, strain not given), 1.91 µg/mL (≈ 4.69 µM).

`O=C(Nc1nnc(-c2ccccc2O)o1)c1ccc(Oc2cccc(O)c2)cc1` [compound 6205]: the MIC against S. aureus worked out at 1.71 µg/mL (≈ 4.39 µM); in the data set on N. gonorrhoeae (Table 2B, strain not given), 0.3 µg/mL (≈ 0.77 µM).

Turning to `O=C(Nc1nnc(C2CC3CCC2C3)o1)c1ccc(OC2CCN(CC(F)(F)F)CC2)cc1` (stereo not shown) [compound 6211], the MIC is 5.8 µg/mL (≈ 12.5 µM) in the data set with S. aureus and 1.29 µg/mL (≈ 2.78 µM) with N. gonorrhoeae (Table 2B, strain not given).

With `O=C(Nc1nnc(-c2ccc(F)cc2)o1)c1ccc(S(=O)(=O)c2ccccc2)cc1` [compound 4257], in the data set with S. aureus, the MIC stood at 2.64 µg/mL (≈ 6.23 µM).

In the case of `O=C(Nc1nnc(-c2cc(F)ccc2O)o1)c1ccc(Oc2cccc(O)c2)cc1` [compound 6977], the MIC amounted to 0.6 µg/mL (≈ 1.47 µM) in the data set with S. aureus and 0.21 µg/mL (≈ 0.516 µM) in the data set with N. gonorrhoeae (Table 2B, strain not given).

For the compound `O=C(Nc1nnc(C2CCCCC2)o1)c1ccc(OC2CCCCC2)nc1` [compound 4925], the MIC in the data set with N. gonorrhoeae (Table 2B, strain not given) was 0.14 µg/mL (≈ 0.378 µM).

In the case of `COc1cccc(Oc2ccc(C(=O)Nc3nnc(-c4ccc(F)cc4)o3)cc2)c1` [compound 4309], the minimum inhibitory concentration (MIC) with S. aureus stood at 0.63 µg/mL (≈ 1.55 µM); in the data set on N. gonorrhoeae (Table 2B, strain not given), 0.1 µg/mL (≈ 0.247 µM).

On to `Cc1ccc(Oc2ccc(C(=O)Nc3nnc(-c4ccc(F)cc4)o3)cc2)cc1` [compound 4305], for which the minimum inhibitory concentration (MIC) in the data set on S. aureus was determined as 0.03 µg/mL (≈ 0.077 µM); with N. gonorrhoeae (Table 2B, strain not given), 0.048 µg/mL (≈ 0.123 µM).

Take `O=C(Nc1nnc(C2CCCCC2)o1)c1ccc(Oc2ccccc2)nc1` [compound 4780]: the MIC came to 3.61 µg/mL (≈ 9.91 µM) in the data set on S. aureus and 0.36 µg/mL (≈ 0.988 µM) in the data set with N. gonorrhoeae (Table 2B, strain not given).

Turning to `O=C(Nc1nnc(-c2ccc(F)cc2)o1)c1ccc(Oc2ccccc2)nc1` [compound 4237, 2-(6-phenoxynicotinamido)-5-(4-fluorophenyl)-1,3,4-oxadiazole], the “inhibition of the 36 mammalian receptors” value with 36 mammalian receptors was < 50%.

As for `O=C(Nc1nnc(-c2ccccc2O)o1)c1ccc(Oc2ccccc2)nc1` [5939A], the minimum inhibitory concentration (MIC) stood at 1.4 µg/mL (≈ 3.74 µM) with S. aureus and 0.82 µg/mL (≈ 2.19 µM) in the data set with N. gonorrhoeae (Table 2B, strain not given).

`O=C(Nc1nnc(-c2ccc(F)cc2)o1)c1ccc(Oc2cccc(O)c2)cc1` [compound 4304]: the MIC in the data set with S. aureus amounted to 3.07 µg/mL (≈ 7.84 µM); in the data set with N. gonorrhoeae (Table 2B, strain not given), 0.39 µg/mL (≈ 0.997 µM).

For the compound `N#Cc1nnc(NC(=O)c2ccc(Oc3ccccc3)nc2)o1` [compound 5834], in the data set with N. gonorrhoeae (Table 2B, strain not given), the MIC was 20.3 µg/mL (≈ 66.1 µM).

Turning to `O=C(Nc1nnc(-c2ccc(F)cc2)o1)c1ccc(N2CCC2)cc1` [compound 5910], the MIC in the data set with S. aureus was 18.9 µg/mL (≈ 55.9 µM); in the data set with N. gonorrhoeae (Table 2B, strain not given), 4.23 µg/mL (≈ 12.5 µM).

Consider `O=C(Nc1nnc(Cc2ccc(F)cc2)o1)c1ccc(Oc2ccccc2)nc1` [compound 4802], for which the MIC in the data set on N. gonorrhoeae (Table 2B, strain not given) was found to be 1.56 µg/mL (≈ 4 µM).

For the compound `O=C(Nc1nnc(-c2ccc(F)cc2)o1)c1ccc(Cl)s1` [compound 3653], the MIC with N. gonorrhoeae (Table 2B, strain not given) was 0.32 µg/mL (≈ 0.988 µM).

With `O=C(Nc1nnc(-c2ccc(F)cc2)o1)c1ccc(OC2CCCC2)cc1` [compound 4293], inhibition of growth against S. aureus (MIC) required 0.28 µg/mL (≈ 0.762 µM).

Turning to `O=C(Nc1nnc(-c2cccc(O)c2)o1)c1ccc(Oc2cccc(O)c2)cc1` [compound 6236], the minimal inhibitory concentration (MIC) in the data set on S. aureus stood at 19.4 µg/mL (≈ 49.8 µM); with N. gonorrhoeae (Table 2B, strain not given), 4.86 µg/mL (≈ 12.5 µM).

As to `O=C(Nc1nnc(C2(O)CCCCC2)o1)c1ccc(Oc2ccccc2)nc1` [compound 5793], the MIC in the data set on N. gonorrhoeae (Table 2B, strain not given) came out at 38 µg/mL (≈ 99.9 µM).

`CC(Oc1ccc(C(=O)Nc2nnc(-c3ccc(F)cc3)o2)cc1)c1ccccc1` (stereo not shown) [compound 4357]: the MIC in the data set on N. gonorrhoeae (Table 2B, strain not given) worked out at 0.2 µg/mL (≈ 0.496 µM).

On to `O=C(Nc1nnc(C2CCCCC2)o1)c1ccc(Oc2cccc(O)c2)cc1` [compound 4801], for which the MIC is 2.98 µg/mL (≈ 7.85 µM) in the data set with S. aureus and 0.19 µg/mL (≈ 0.501 µM) in the data set with N. gonorrhoeae (Table 2B, strain not given).

With `Cc1cc(C)cc(Oc2ccc(C(=O)Nc3nnc(-c4ccc(F)cc4)o3)cc2)c1` [compound 4308], the minimum inhibitory concentration (MIC) in the data set with S. aureus worked out at 0.314 µg/mL (≈ 0.778 µM); in the data set on N. gonorrhoeae (Table 2B, strain not given), 0.079 µg/mL (≈ 0.196 µM).

With `O=C(Nc1nnc(C2CCCC2)o1)c1ccc(Oc2ccccc2)nc1` [compound 4470], the minimal inhibitory concentration (MIC) against S. aureus was 4.37 µg/mL (≈ 12.5 µM); in the data set on N. gonorrhoeae (Table 2B, strain not given) it was 0.35 µg/mL (≈ 0.999 µM).

Consider `CN(C(=O)c1ccc(Cl)cc1)c1nnc(-c2ccc(F)cc2)o1` [compound 4076], for which the MIC with S. aureus is 8.27 µg/mL (≈ 24.9 µM); in the data set on N. gonorrhoeae (Table 2B, strain not given), 2.07 µg/mL (≈ 6.24 µM).

As to `Cc1cccc(Oc2ccc(C(=O)Nc3nnc(-c4ccc(F)cc4)o3)cc2)c1` [compound 4306], the MIC in the data set on S. aureus worked out at 0.03 µg/mL (≈ 0.077 µM); with N. gonorrhoeae (Table 2B, strain not given) it was 0.048 µg/mL (≈ 0.123 µM).

(Values after US20230109833A1, “METABOLICALLY STABLE N-ACYLAMINOOXADIAZOLES USEFUL AS ANTIBACTERIAL AGENTS” (MICROBIOTIX, INC., priority 2017, published 2023).)
